Assay results as given in EP0086660B1, “Renally active tetrapeptides” (SMITHKLINE BECKMAN CORPORATION, priority 1982, dated 1985).
Where two headings read alike, the source gives them in different places. Square brackets hold non-standard residues; d marks the D form. Peptide text beside a SMILES is read from it. * marks the point of attachment. Butanoyl(4-(4-HOPh)) = O=C(CCCc1ccc(O)cc1)*

Assays:
[1] = secondary test
[2] = system: spontaneously hypertensive rat
[3] = secondary test; remark: listed apart in the source
anesthetized dogs = experiment: anesthetized dog protocol: infusion, measuring MAP, RBF, RVR and HR; format: in vivo
[4] = cumulative effects at 300 µg/kg/min

NCCc1ccc(O)c(O)c1 [Dopamine, dopamine]
ED15 [1]: 3.5 µg/kg

4-(4-hydroxyphenyl)-butyryl-L-prolyl-D,L-a-methylphenylalanyl-glycyl-L-proline [Example 2]
reversal of antidiuretic hormone activity (toad bladder): inactive | activity in the spontaneously hypertensive rat protocol ([2]; rat, in vivo): not active | water diuresis ([2]; spontaneously hypertensive rat protocol): slight water diuresis | ED15 [3]: 1.9e-06 µg/kg | Renal blood flow (anesthetized dogs; cumulative effect, measured after the normal period of the test, increased from 127 ml/min): 162 mL/min | cardiac rate (HR) (anesthetized dogs; cumulative effect, measured after the normal period of the test, predrug level 140 BPM): 105 BPM

O=C(NCC(=O)N1CCC[C@H]1C(=O)O)[C@@H](Cc1ccccc1)NC(=O)[C@@H]1CCCN1C(=O)CCCc1ccc(O)cc1 [Example 3, N-4-(4-hydroxyphenyl)-butyryl-L-prolyl-D-phenylalanyl-glycyl-L-proline] ({Butanoyl(4-(4-HOPh))}-P[dF]GP-OH)
HR (anesthetized dogs; [4]): -8 | RBF (anesthetized dogs; [4]): +22 | RVR (anesthetized dogs; cumulative effects at 300 µg/kg/min, parameter name not printed before the value): -18
